A short description of series [1]: The drug is tested on WLS-038 corresponding to human gut metagenome with ENA study accession number: PRJEB37062 and ENA sample accession number: ERS12561745 for biotransformation under anaerobic condition. The drug concentrations were measured over 9 timepoints collected between 0 and 24 hours of incubation by liquid-chromatography-coupled mass spectrometry (LC–MS). The conditions noted are these: 2 µM.

The nature of series [2]: The drug is tested on Z-013 corresponding to rabbit gut metagenome with ENA study accession number: PRJEB37062 and ENA sample accession number: ERS12561813 for biotransformation under anaerobic condition. The drug concentrations were measured over 9 timepoints collected between 0 and 24 hours of incubation by liquid-chromatography-coupled mass spectrometry (LC–MS). The conditions noted are these: 2 µM.

Series [3] in a line: The drug is tested on WLS-007 corresponding to human gut metagenome with ENA study accession number: PRJEB37062 and ENA sample accession number: ERS12561742 for biotransformation under anaerobic condition. The drug concentrations were measured over 9 timepoints collected between 0 and 24 hours of incubation by liquid-chromatography-coupled mass spectrometry (LC–MS). The conditions noted are these: 2 µM.

The conditions of series [4]: human gut metagenome, 24 h, 2 µM.
Series [5] in a line: The drug is tested on Z-027 corresponding to metagenome with ENA study accession number: PRJEB37062 and ENA sample accession number: ERS12561826 for biotransformation under anaerobic condition. The drug concentrations were measured over 9 timepoints collected between 0 and 24 hours of incubation by liquid-chromatography-coupled mass spectrometry (LC–MS). The conditions noted are these: 2 µM.

For series [6] the following is noted: human gut metagenome, 24 h, 2 µM. The source holds these as a separate data set.
A short description of series [7]: The drug is tested on Z-007 corresponding to rat gut metagenome with ENA study accession number: PRJEB37062 and ENA sample accession number: ERS12561807 for biotransformation under anaerobic condition. The drug concentrations were measured over 9 timepoints collected between 0 and 24 hours of incubation by liquid-chromatography-coupled mass spectrometry (LC–MS). The conditions noted are these: 2 µM.

For series [8] the following is noted: human gut metagenome, 24 h, 2 µM. The source holds these as a separate data set.
Series [9] can be described thus: The drug is tested on Z-022 corresponding to mouse gut metagenome with ENA study accession number: PRJEB37062 and ENA sample accession number: ERS12561821 for biotransformation under anaerobic condition. The drug concentrations were measured over 9 timepoints collected between 0 and 24 hours of incubation by liquid-chromatography-coupled mass spectrometry (LC–MS). The conditions noted are these: 2 µM.

Series [10] can be described thus: The drug is tested on Z-028 corresponding to mouse gut metagenome with ENA study accession number: PRJEB37062 and ENA sample accession number: ERS12561827 for biotransformation under anaerobic condition. The drug concentrations were measured over 9 timepoints collected between 0 and 24 hours of incubation by liquid-chromatography-coupled mass spectrometry (LC–MS). The conditions noted are these: 2 µM.

Series [11] is described as follows: The drug is tested on Z-002 corresponding to rabbit gut metagenome with ENA study accession number: PRJEB37062 and ENA sample accession number: ERS12561802 for biotransformation under anaerobic condition. The drug concentrations were measured over 9 timepoints collected between 0 and 24 hours of incubation by liquid-chromatography-coupled mass spectrometry (LC–MS). The conditions noted are these: 2 µM.

Series [12] can be described thus: The drug is tested on Z-005 corresponding to metagenome with ENA study accession number: PRJEB37062 and ENA sample accession number: ERS12561805 for biotransformation under anaerobic condition. The drug concentrations were measured over 9 timepoints collected between 0 and 24 hours of incubation by liquid-chromatography-coupled mass spectrometry (LC–MS). The conditions noted are these: 2 µM.

Series [13] in a line: The drug is tested on WLS-052 corresponding to human gut metagenome with ENA study accession number: PRJEB37062 and ENA sample accession number: ERS12561747 for biotransformation under anaerobic condition. The drug concentrations were measured over 9 timepoints collected between 0 and 24 hours of incubation by liquid-chromatography-coupled mass spectrometry (LC–MS). The conditions noted are these: 2 µM.

Series [14] in a line: The drug is tested on Z-025 corresponding to rabbit gut metagenome with ENA study accession number: PRJEB37062 and ENA sample accession number: ERS12561824 for biotransformation under anaerobic condition. The drug concentrations were measured over 9 timepoints collected between 0 and 24 hours of incubation by liquid-chromatography-coupled mass spectrometry (LC–MS). The conditions noted are these: 2 µM.

The conditions of series [15]: human gut metagenome, 24 h, 2 µM. The source holds these as a separate data set.
For series [16] the following is noted: human gut metagenome, 24 h, 2 µM. This is another data set of the same source.
The conditions of series [17]: human gut metagenome, 24 h, 2 µM. The source holds these as a separate data set.
The conditions of series [18]: human gut metagenome, 24 h, 2 µM. This is another data set of the same source.
Series [19] in a line: The drug is tested on WLS-027 corresponding to human gut metagenome with ENA study accession number: PRJEB37062 and ENA sample accession number: ERS12561744 for biotransformation under anaerobic condition. The drug concentrations were measured over 9 timepoints collected between 0 and 24 hours of incubation by liquid-chromatography-coupled mass spectrometry (LC–MS). The conditions noted are these: 2 µM.

Series [20] in a line: The drug is tested on Z-024 corresponding to pig gut metagenome with ENA study accession number: PRJEB37062 and ENA sample accession number: ERS12561823 for biotransformation under anaerobic condition. The drug concentrations were measured over 9 timepoints collected between 0 and 24 hours of incubation by liquid-chromatography-coupled mass spectrometry (LC–MS). The conditions noted are these: 2 µM.
Further: call rule not given here.

With `CCc1nc(N)nc(N)c1-c1ccc(Cl)cc1` [PYRIMETHAMINE], the “Bacterial Biotransformation” value in series [1] was “Compound NOT metabolized”; in [2], “Compound NOT metabolized”; in series [3], “Compound metabolized”; in series [4], “Compound NOT metabolized”; in [5] it was “Compound NOT metabolized”; in series [6], “Compound NOT metabolized”. The “Bacterial Biotransformation” value was “Compound NOT metabolized” in series [7]; “Compound metabolized” in [8]; “Compound metabolized” in series [9]; “Compound NOT metabolized” in [10]; “Compound metabolized” in [11]; “Compound NOT metabolized” in [12]. The “Bacterial Biotransformation” value in series [13], in series [14], in series [15], in [16], in series [17] and in [18] was “Compound NOT metabolized” throughout. Further, the “Bacterial Biotransformation” value in series [19] is given as “Compound NOT metabolized”; in series [20], “Compound metabolized”.
Regarding `COc1ccccc1OCC(O)CN1CCN(CC(=O)Nc2c(C)cccc2C)CC1` (stereo not given) [RANOLAZINE], the “Bacterial Biotransformation” value in [1], in [2], in series [3], in [4], in [5] and in [6] was “Compound NOT metabolized” in each case. The “Bacterial Biotransformation” value is on record as “Compound NOT metabolized” in [7]; “Compound NOT metabolized” in series [8]; “Compound metabolized” in [9]; “Compound NOT metabolized” in series [10]; “Compound metabolized” in [11]; “Compound NOT metabolized” in [12]. Besides, the “Bacterial Biotransformation” value in [13], in series [14], in [15], in series [16], in [17] and in series [18] was “Compound NOT metabolized” in each case. Moreover, the “Bacterial Biotransformation” value in [19] and in series [20] was “Compound NOT metabolized” each time.
`Cc1nc2n(c(=O)c1CCN1CCC(c3noc4cc(F)ccc34)CC1)CCCC2` [RISPERIDONE]: the “Bacterial Biotransformation” value in [1] is “Compound metabolized”; in series [2], “Compound metabolized”; in [3] it was “Compound metabolized”; in series [4], “Compound metabolized”; in [5], “Compound metabolized”; in [6], “Compound NOT metabolized”. Also, the “Bacterial Biotransformation” value in series [7] is recorded as “Compound metabolized”; in series [8] it was “Compound NOT metabolized”; in series [9] it was “Compound metabolized”; in series [10], “Compound metabolized”; in series [11], “Compound metabolized”; in series [12], “Compound metabolized”. Moreover, the “Bacterial Biotransformation” value in [13], in [14], in series [15], in series [16], in series [17] and in series [18] was “Compound metabolized” each time. In addition, the “Bacterial Biotransformation” value in series [19] and in series [20] was “Compound metabolized” throughout.
Turning to `CCCc1nn(C)c2c(=O)[nH]c(-c3cc(S(=O)(=O)N4CCN(C)CC4)ccc3OCC)nc12.O=C(O)CC(O)(CC(=O)O)C(=O)O` [SILDENAFIL CITRATE], the “Bacterial Biotransformation” value in series [1] is recorded as “Compound NOT metabolized”; in series [2], “Compound NOT metabolized”; in series [3] it was “Compound NOT metabolized”; in series [4], “Compound metabolized”; in series [5] it was “Compound NOT metabolized”; in [6] it was “Compound NOT metabolized”. For the same molecule, the “Bacterial Biotransformation” value is reported as “Compound NOT metabolized” in series [7]; “Compound metabolized” in series [8]; “Compound metabolized” in series [9]; “Compound NOT metabolized” in [10]; “Compound NOT metabolized” in [11]; “Compound NOT metabolized” in [12]. The “Bacterial Biotransformation” value in series [13] is listed as “Compound NOT metabolized”; in series [14], “Compound metabolized”; in series [15], “Compound NOT metabolized”; in series [16], “Compound NOT metabolized”; in series [17] it was “Compound NOT metabolized”; in series [18] it was “Compound NOT metabolized”. Besides, the “Bacterial Biotransformation” value is on record as “Compound NOT metabolized” in series [19] and “Compound metabolized” in series [20].
Consider `COc1ccc2[nH]c([S+]([O-])Cc3ncc(C)c(OC)c3C)nc2n1` (stereo not given) [TENATOPRAZOLE], for which the “Bacterial Biotransformation” value in series [1] is “Compound metabolized”; in [2], “Compound metabolized”; in [3], “Compound metabolized”; in series [4], “Compound metabolized”; in series [5] it was “Compound metabolized”; in series [6] it was “Compound NOT metabolized”. The “Bacterial Biotransformation” value was “Compound metabolized” in series [7]; “Compound metabolized” in series [8]; “Compound NOT metabolized” in series [9]; “Compound metabolized” in [10]; “Compound NOT metabolized” in series [11]; “Compound metabolized” in series [12]. Moreover, the “Bacterial Biotransformation” value in series [13], in [14], in series [15], in series [16], in [17] and in [18] was “Compound metabolized” throughout. Further, the “Bacterial Biotransformation” value is “Compound metabolized” in series [19] and “Compound NOT metabolized” in series [20].
